# Source: patent US20070264324A1, “Use of Vegetable Anthraquinone Derivatives and Vegetable Polysaccharides For Treating Human Immunodeficiency Virus (HIV)” (priority 2004, published 2007)
# System: TC740 cells
# Type: cell-based
# Conditions: 72 h
# Protocol: The present invention relates to using emodin and RRP to inhibit HIV in an exogenous (however endocellular) environment, in order to attest their anti-HIV effectiveness. More specifically, the invention includes: • 1. Preparing emodin and RRP solutions with various concentrations (70-98% for emodin, and 80-95% for RRP). • 2. Culturing test subjects containing 100 μL of cells using cell incubator under 37° C. and 5% CO2 for 24 hours, forming monolayer on each culture media. • 3. Testing the toxicity of the agents: apply Rheum rhaponticum extractions to the monolayer on culture medium. Maintain the culture media under 37° C. and 5% CO2 for 72 hours, and observe the monolayer for cellular viability. […] These standard concentrations of emodin range between 70% and 98%, and those of RRP range between 80% and 95%. • 4. Testing the anti-HIV effectiveness of emodin and RRP: apply a specific concentration of HIV to those culture medium containing viable cells and already applied with emodin and/or RRP. Observe the viability of cells, and compare them with those in the control groups.
# 3. Cytotoxicity test: apply an emodin/RRP mixture with a concentration between 1600 μg/mL and 25 μg/mL to the culture medium, and maintain the medium under […] for 72 hours before observing.
structure (smiles),measurement,value
Cc1cc(O)c2c(c1)C(=O)c1cc(O)cc(O)c1C2=O [emodin],standard concentrations that do not affect the growth of cells,70% and 98%
